Key:
[1] = test system: hEPO expression; test: Expression of hEPO in rats induced by nanoparticle compositions; type: in vivo, S.D. rats; details: rats, 3, 6 and 24 hours
Description: Formulations were administered intravenously, subcutaneously or intramuscularly to rats (n=3 or 6) at a dosage of 0.2 mg/kg or 0.5 mg/kg (mpk) and hEPO levels measured at 3, 6, and 24 hour time points. After the 48 hour time point, livers and spleens were harvested and frozen.
(§1) In contrast, hEPO expression in rats induced by administration of a nanoparticle composition including a compound according to one of formulae (I), (Ia1)-(Ia6), (Ib), (II), (IIa), (III), and (IIIa) was substantially […] than that measured for MC3. […] Tables 7c and 7d show additional protein expressions and clearance data from compositions with various compounds disclosed herein as compared to with MC3. Tables 7e, 7f and 7g show hEPO expression data in CD-1 mice at a dose of 0.5 mpk.

[2] = Purity at start and after storage for 65 h at 25 °C or 37 °C; type: physicochemical
[3] = Particle size and polydispersity index of nanoparticle compositions (Zetasizer Nano ZS); type: physicochemical
Description: A Zetasizer Nano ZS (Malvem Instruments Ltd, Malvem, Worcestershire, UK) can be used to determine the particle size, the polydispersity index (PDI) and the zeta potential of the nanoparticle compositions in 1×PBS in determining particle size and 15 mM PBS in determining zeta potential.

[4] = test system: hEPO expression; test: hEPO (miR126 + miR142) mRNA expression, Tables 8b-8e; type: in vivo
[5] = Lipid clearance: % dose remaining, Tables 7c and 8b-8e (species not given); type: in vivo
Excerpt: as §1

[6] = Encapsulation efficiency of RNA (QUANT-IT RIBOGREEN RNA assay); type: physicochemical
Summary of the method: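 Samples diluted to about 5 μg/mL RNA in TE buffer pH 7.5, treated with buffer or 2% Triton X-100 for 15 min at 37° C, then stained with RiboGreen (1:100). Fluorescence at about 480/520 nm, blank-subtracted; free RNA fraction is intact over Triton-disrupted signal.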

[7] = Lipid clearance: % dose remaining in liver of CD-1 mice; type: in vivo; details: intravenous, 0.5 mg/kg, CD-1 mouse, Table 8a
Summary of the method: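 Nanoparticle compositions containing the test compound were dosed to CD-1 mice at 0.5 mpk, and hEPO expression was measured. Clearance data were collected from the same compositions.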

[8] = test system: hepatocytes and Kupffer cells; test: Mouse liver immunohistochemistry (IHC) with GFP mRNA (FIGS. 11A, 11B); type: in vivo; details: CD-1 mouse liver, 6h after intravenous administration, 0.5 mpk (FIG. 11A)
Excerpt: FIGS. 11A and 11B are a pair of images comparing the results of a mouse liver immunohistochemistry (IHC) using mRNA expressing green fluorescent protein (GFP) after administration of nanoparticle compositions containing Compound 4 and MC3.

[9] = test system: hEPO expression; test: hEPO expression in CD-1 mice compared with MC3; type: in vivo
Summary of the method: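 Read-out was hEPO expression in CD-1 mice after a 0.5 mpk dose of nanoparticle composition including the test compound. An MC3 composition served as reference.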

[10] = Table 1f, Formulated with lipid:Chol:DOPE:PEG 1 40:38.5:20:1.5
[11] = Table 1e, row marked #: Formulated with lipid:Chol:PEG 1 50:47.5:2.5
[12] = Table 1f, row marked #: Formulated with lipid:Chol:PEG 1 50:47.5:2.5
[13] = Table 1d, row marked #: Formulated with lipid:Chol:PEG 1 50:47.5:2.5

| SMILES | PDI [3, 10] | Size (nm) [3, 10] [nm] | AUC ([4]; Table 8d) [pg·h/mL] | % Dose Remaining (liver, 24 h) ([5]; Table 8d) [%] | EE (%) [6, 10] [%] | other results |
| --- | --- | --- | --- | --- | --- | --- |
| CCCCCCCCCCCCN(CCCCCCCCCCCC)CCN(CCCCCCCCCCCC)CCN1CCN(CCN(CCCCCCCCCCCC(=O)OC)CCCCCCCCCCCC(=O)OC)CC1 [Compound 16, Dimethyl 12,12′-((2-(4-(2-((2-(didodecylamino)ethyl)(dodecyl)amino)ethyl)piperazin-1-yl)ethyl)azanediyl)didodecanoate] | – | – | – | – | – | hEPO expression at each time point, rank among compositions of Table 6 [1]: lowest hEPO expression |
| CCCCCCCCCN(CCCCCCCCC)CCN(CCCCCCCCC)CC(=O)N1CCN(C(=O)CN(CCCCCCCCC)CCCCCCCC(=O)OC)CC1 [Compound 44, Methyl 8-((2-(4-(N-(2-(dinonylamino)ethyl)-N-nonylglycyl)piperazin-1-yl)-2-oxoethyl)(nonyl)amino)octanoate] | – | – | – | – | – | Purity % 25° C. no shaking t = 65 h ([2]; after storage for 65 h at 25° C., no shaking): 92%; Purity % 37° C. shaking t = 65 h ([2]; after storage for 65 h at 37° C., shaking): 91%; Purity % t = 0 h ([2]; beginning of the study, 25° C.): 90% |
| CCCCCCCCCOC(=O)CCCCCCCN(CCCCCCCC(=O)OC(CCCCCCCC)CCCCCCCC)CCCCC(=O)N(CC)CCN(CC)C(=O)CCCCN(CCCCCCCC(=O)OCCCCCCCCC)CCCCCCCC(=O)OC(CCCCCCCC)CCCCCCCC [Compound 181, Di(heptadecan-9-yl) 15,18-diethyl-9,24-bis(8-(nonyloxy)-8-oxooctyl)-14,19-dioxo-9,15,18,24-tetraazadotriacontanedioate] | 0.25 | 129.9 | 1.69e+08 | 2.51 | 97.7 | – |
| CCCCCCCCCOC(=O)CCCCCCCN(CCCCCCCC(=O)OC(CCCCCCCC)CCCCCCCC)CCCCC(=O)N(C)CCCN(C)C(=O)CCCCN(CCCCCCCC(=O)OCCCCCCCCC)CCCCCCCC(=O)OC(CCCCCCCC)CCCCCCCC [Compound 182, Di(heptadecan-9-yl) 15,19-dimethyl-9,25-bis(8-(nonyloxy)-8-oxooctyl)-14,20-dioxo-9,15,19,25-tetraazatritriacontanedioate] | 0.28 | 97.7 | 6.06e+07 | 1.64 | 98.8 | – |
| CCCCCCCCCOC(=O)CCCCCCCN(CCCCCCCC(=O)OC(CCCCCCCC)CCCCCCCC)CCCCC(=O)N(C)CCN(C)C(=O)CCCCN(CCCCCCCC(=O)OCCCCCCCCC)CCCCCCCC(=O)OC(CCCCCCCC)CCCCCCCC [Compound 183, Di(heptadecan-9-yl) 15,18-dimethyl-9,24-bis(8-(nonyloxy)-8-oxooctyl)-14,19-dioxo-9,15,18,24-tetraazadotriacontanedioate] | Multimodal | 128.9 | 6.53e+07 | 1.87 | 99.1 | – |
| CCCCCCCCCOC(=O)CCCCCCCN(CCCCCCCC(=O)OC(CCCCCCCC)CCCCCCCC)CCCCC(=O)N1CCN(C(=O)CCCCN(CCCCCCCC(=O)OCCCCCCCCC)CCCCCCCC(=O)OC(CCCCCCCC)CCCCCCCC)CC1 [Compound 184, Di(heptadecan-9-yl) 8,8′-((piperazine-1,4-diylbis(5-oxopentane-5,1-diyl))bis((8-(nonyloxy)-8-oxooctyl)azanediyl))dioctanoate] | Multimodal | 107.6 | 4.21e+08 | 2.23 | 99.1 | – |
| CCCCCCCCCOC(=O)CCCCCCCN(CCCCCCCC(=O)OC(CCCCCCCC)CCCCCCCC)CCCCC(=O)OCCOC(=O)CCCCN(CCCCCCCC(=O)OCCCCCCCCC)CCCCCCCC(=O)OC(CCCCCCCC)CCCCCCCC [Compound 185, Di(heptadecan-9-yl) 8,8′-(11,24,29,42-tetraoxo-10,25,28,43-tetraoxa-19,34-diazadopentacontane-19,34-diyl)dioctanoate] | 0.27 | 98.4 | 2.23e+07 | 18.21 | 98.6 | – |
| CCCCCCCCCOC(=O)CCCCCCCN(CCCCCCCC(=O)OC(CCCCCCCC)CCCCCCCC)CCCCC(=O)OC(C)C(C)OC(=O)CCCCN(CCCCCCCC(=O)OCCCCCCCCC)CCCCCCCC(=O)OC(CCCCCCCC)CCCCCCCC (centres unmarked) [Compound 186, Di(heptadecan-9-yl) 8,8′-(26,27-dimethyl-11,24,29,42-tetraoxo-10,25,28,43-tetraoxa-19,34-diazadopentacontane-19,34-diyl)dioctanoate] | 0.21 | 111.5 | 2.19e+07 | 49.08 | 98.2 | – |
| CCCCCCCCCOC(=O)CCCCCCCN(CCCCCCCC(=O)OC(CCCCCCCC)CCCCCCCC)CCCCC(=O)OC(C)CC(C)OC(=O)CCCCN(CCCCCCCC(=O)OCCCCCCCCC)CCCCCCCC(=O)OC(CCCCCCCC)CCCCCCCC (centres unmarked) [Compound 187, Di(heptadecan-9-yl) 8,8′-(26,28-dimethyl-11,24,30,43-tetraoxo-10,25,29,44-tetraoxa-19,35-diazatripentacontane-19,35-diyl)dioctanoate] | 0.20 | 126.0 | 5.22e+07 | 42.86 | 98.5 | – |
| CCCCCCCCCN(CCCCCCCCC)CCN(CCCCCCCCC)CC(=O)OC(C)C(C)OC(=O)CN(CCCCCCCCC)CCCCCCCCC (centres unmarked) [Compound 188, 3-((N-(2-(dinonylamino)ethyl)-N-nonylglycyl)oxy)butan-2-yl dinonylglycinate] | 0.12 | 78.0 | 8.76e+06 | 117.31 | 97.5 | – |
| CCCCCCCCCN(CCCCCCCCC)CCN(CCCCCCCCC)CC(=O)OC(C)CC(C)OC(=O)CN(CCCCCCCCC)CCCCCCCCC (centres unmarked) [Compound 189, 4-((N-(2-(Dinonylamino)ethyl)-N-nonylglycyl)oxy)pentan-2-yl dinonylglycinate] | 0.16 | 70.1 | 1.15e+07 | 91.63 | 98.3 | – |
| CCCCCC=CCC=CCCCCCCCCC(CCCCCCCCC=CCC=CCCCCC)OC(=O)CCCN(C)C (centres unmarked) [MC3, heptatriaconta-6,9,28,31-tetraen-19-yl 4-(dimethylamino)butanoate, reference compound] | – | – | 6.95e+08 | 54.04 | – | hEPO expression at each time point, rank among compositions of Table 6 [1]: highest hEPO expression; PDI [3, 11]: 0.22; Size (nm) [3, 11]: 109.0 nm; PDI [3, 12]: 0.26; Size (nm) [3, 12]: 129.7 nm; PDI [3, 13]: 0.20; Size (nm) [3, 13]: 105.0 nm; % Dose Remaining 24 hr [7]: 64.65%; GFP protein expression in liver cell types (IHC) [8]: observed in both hepatocytes and Kupffer cells; AUC ([4]; Table 8c): 1.52e+07 pg·h/mL; AUC (mIU/mL*h) ([4]; lipid:Chol:PEG 1 50:47.5:2.5, Table 8e): 2.24E+07 mIU/mL*h; % Dose Remaining (liver, 24 h) ([5]; Table 8c): 58.41%; AUC (p/s*h) CD-1 mice 0.5 mpk ([9]; intramuscular, title: 0.01 mg/kg, Table 7f): 27727 p/s*h; AUC (p/s*h) CD-1 mice 0.5 mpk ([9]; subcutaneous, 0.5 mg/kg, Table 7g): 375994 p/s*h; EE (%) [6, 11]: 93.0%; EE (%) [6, 12]: 92.5%; EE (%) [6, 13]: 84.1% |

From patent US12077501B2, “Compounds and compositions for intracellular delivery of agents” (ModernaTX, Inc., priority 2017, dated 2024)
